Experiment in all cases: DTP human tumour cell line panel, 48 h
Test [1] relates to NCI-H226 lung.
Test [2] deals with UACC-257 melanoma.
Test [3] concerns HCT-116 colon.
For test [4], the system named is 786-0 renal.
The test system of test [5] is SW-620 colon.
Test [6] relates to DU-145 prostate.
Test [7] concerns PC-3 prostate.
Test [8] deals with MALME-3M melanoma.
The subject of test [9] is U251 CNS.
Test [10] concerns NCI-H460 lung.
For test [11], the system named is SR leukemia.
In test [12] the test system is CAKI-1 renal.

From PubChem BioAssay (NCI) come the findings set out here.

The structures appear in SMILES notation.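 Values below derive from 48-hour exposures of cells grown in 96-well plates, with endpoints linearly interpolated between the two concentrations bracketing the appropriate inhibition level. The concentration for full growth arrest is given as TGI.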

As for `COC1=CC(=O)c2c(O)ccc(O)c2C1=O`, the total growth inhibition concentration (TGI) in test [1] amounted to 43.8 µM; in [2], 2.88 µM; in test [3], 31.2 µM; in test [4], 28 µM; in test [5] it was 17.7 µM; in test [6] it was 3.18 µM. Further, the TGI in test [7] was determined as 41.4 µM; in [8], 0.357 µM; in [9], 22.1 µM; in [10], 12.9 µM.
On to `C[N+](C)(C)Cc1c(CC#N)[nH]c2ccccc12`, for which the TGI in [1], in test [2], in test [3], in test [4], in test [11] and in test [5] was above 100 µM throughout. Besides, the TGI in test [12], in test [8], in test [9] and in test [10] was above 100 µM in each case.
For the compound `Cn1c(=O)c2c(ncn2CCSS(=O)(=O)O)n(C)c1=O`, the TGI in test [1], in [2], in test [3], in test [4], in [5] and in test [6] was above 100 µM throughout. The TGI in [12], in [7], in test [8], in [9] and in [10] was above 100 µM throughout.
With `COc1cc(C2c3[nH]c4ccc(F)cc4c3C[C@H]3COC(=O)N23)cc(OC)c1O` (stereo partly drawn), the TGI in test [1] was 32.3 µM; in [2], above 100 µM; in test [3], 25.5 µM; in test [4] it was 26 µM; in [6], 39.2 µM; in [12], 44.7 µM. For the same compound, the TGI in test [7] is above 100 µM; in test [8] it was 55.7 µM; in [9], 25 µM; in test [10] it was 19.8 µM.
Regarding `O=C(O)C(Cc1cnc[nH]1)N=Cc1nc(-c2ccccc2)oc1O` (stereo not drawn), the TGI in test [1], in [2], in test [3], in test [4], in test [11] and in test [5] was above 100 µM each time. Further, the TGI in test [8], in [9] and in test [10] was above 100 µM throughout.
Take `O/N=C1/CCCCCC1NO` (stereo not drawn): the TGI in test [1], in test [2], in [3], in test [4], in test [5] and in [6] was above 100 µM in each case. The TGI in [12], in test [7], in [8], in test [9] and in test [10] was above 100 µM each time.
In the case of `Cc1ccc(S(=O)(=O)N/N=C/c2oc(-c3ccccc3Cl)c(-c3ccccc3Cl)c2[N+](=O)[O-])cc1`, the total growth inhibition concentration (TGI) in [2] is above 100 µM; in test [3], 46.6 µM; in test [4], 72 µM; in test [11], 64.6 µM; in [5], above 100 µM; in test [12] it was above 100 µM. In addition, the values for the total growth inhibition concentration (TGI) in [8] and in test [10] were 71.4 µM and 29.9 µM, respectively.
As for `O=C(N/N=C/C=C/c1ccc([N+](=O)[O-])o1)c1ccc(Br)s1`, the total growth inhibition concentration (TGI) is 47.3 µM in [1]; 13.3 µM in test [3]; 47.5 µM in test [4]; 71.6 µM in test [5]; above 100 µM in [6]; 66.2 µM in test [12]. For the same compound, the total growth inhibition concentration (TGI) is 49.7 µM in test [7], 37.9 µM in [8], above 100 µM in [9] and above 100 µM in test [10].
For the compound `O=C1c2ccccc2C(=O)C2C3c4ccccc4C(c4ccccc43)C12` (stereo not drawn), the TGI in test [1] was above 100 µM; in test [2], above 100 µM; in test [3] it was above 100 µM; in test [4], 18.9 µM; in test [11], 30.5 µM; in [5], above 100 µM. In addition, the TGI is 38.8 µM in [8], above 100 µM in test [9] and above 100 µM in test [10].
As for `CC(C)CCNC(=O)c1ccc(CNC(=O)/C=C/c2csc(-c3ccccc3)n2)cc1`, the TGI in test [1], in test [2], in test [3], in [4], in test [5] and in test [6] was above 100 µM each time. For the same compound, the TGI in [12] was above 100 µM; in [7] it was above 100 µM; in [8] it was above 100 µM; in test [9], 96.8 µM; in test [10], above 100 µM.
Consider `O=C1SC(c2ccccc2)(c2ccccc2)c2ccccc21`, for which the concentration for total growth inhibition (TGI) in test [1], in test [2], in [3], in test [4], in test [5] and in test [12] was above 100 µM each time. In addition, the TGI in [8], in test [9] and in [10] was above 100 µM each time.
Regarding `Cc1nc2c(n1CCC(C)C)C(=O)c1ccccc1C2=O`, the TGI was above 100 µM in [1]; 56.7 µM in [2]; 22.6 µM in [3]; above 100 µM in test [4]; 37.6 µM in test [11]; above 100 µM in [5]. Also, the results for the TGI in test [8], in test [9] and in test [10] were 55.3 µM, 60.4 µM and 21.1 µM, respectively.
For `CC1C2(C)OC(=N)C(C#N)(C(c3ccco3)O2)C1(C#N)C#N` (stereo not drawn), the TGI in test [1] was above 100 µM; in test [2] it was 51.9 µM; in test [3], 67.1 µM; in test [4], 49.5 µM; in test [5], 40.4 µM; in [6] it was above 100 µM. The TGI is 27.4 µM in test [12]; above 100 µM in test [7]; 88.7 µM in test [8]; 51.5 µM in test [9]; 44.6 µM in [10].
